Drawing on patent US9949945B2, “3′ equatorial-fluorine-substituted neuraminidase inhibitor compounds, compositions and methods for the use thereof as anti-virals” (THE UNIVERSITY OF BRITISH COLUMBIA, priority 2012, dated 2018), this text covers IC50 for two substances.

Type in all cases: biochemical
Test [1] concerns the target B/Florida E119D (B/Florida/4/2006 mutant 1 E117D) NA (Influenza B virus, UniProt J7JZT1, E117D).
The target in test [2] is A/Fukui H3N2 E119V (oseltamivir-resistant) NA (Influenza A virus, UniProt A0A0F6NYK2, E119V). As to conditions: read-out: IC50 in the enzyme inhibition assay, A/Fukui H3N2 E119V.
The target in test [3] is Sol Isl sH1N1 E119A (A/Solomon Islands/3/2006 mutant) NA (Influenza A virus, UniProt B4URD9, E119A).
Test [4] deals with sH1N1/01 H275Y (A/Mississippi/3/01 oseltamivir-resistant) NA (Influenza A virus, UniProt Q3M0T6, H275Y).

Like-named read-outs stand apart in the source and are kept apart here.

In the case of Oseltamivir, the results for the IC50 in test [1] and in test [2] were 1.21 µM and 0.26 µM, respectively.
Take Zanamivir: the IC50 is over 10 µM in test [3]; 0.0022 µM in test [4] (read-out: IC50 in the enzyme inhibition assay, A/Mississippi H1N1 H275Y); 0.0022 µM in test [4] (read-out: IC50 sH1N/01 H275Y).
